Experimental data reported in BindingDB's records for doi:10.1021/jm00113a025 (Merck Sharp and Dohme Research Laboratories, 1991).

Molecular target: T1, Dimer of Gag-Pol polyprotein [489-587] (Human immunodeficiency virus 1, UniProt P04585)
T1 construct: 489-587
Test: Protease Inhibition Assay
Details: pH 5.5; 30 °C
Protocol: Sensitivity of HIV-1 protease activity to protease inhibitors was determined by a peptide substrate cleavage assay. Protease products were analyzed on a reverse-phase high-pressure liquid chromatograph.

Structure (SMILES) | IC50 [nM]
CC(C)C[C@H](NC(=O)[C@H](Cc1ccccc1)C[C@H](O)[C@H](Cc1ccccc1)NC(=O)OC(C)(C)C)C(=O)N[C@@H](Cc1ccccc1)C(N)=O [Hydroxyethylene dipeptide isostere] | 0.6
CCC(C)[C@H](NC(=O)[C@H](Cc1ccccc1)C[C@H](O)[C@H](Cc1ccccc1)NC(=O)OC(C)(C)C)C(=O)N[C@@H](Cc1ccccc1)C(N)=O (stereo partly drawn) [tert-butyl N-[(2S,3S,5R)-5-benzyl-5-{[(1S,2S)-1-{[(1S)-1-carbamoyl-2-phenylethyl]carbamoyl}-2-methylbutyl]carbamoyl}-3-hydroxy-1-phenylpentan-2-yl]carbamate] | 0.25
